Laboratory results from US11478464B1, “Method for treating inflammation” (KING FAISAL UNIVERSITY, priority 2022, dated 2022).
Where “and” joins values, the source holds several entries; their conditions need not be identical. Equal entries are not always repeated. Entries after “also recorded” stand apart in the source; their conditions may differ. Where two headings read alike, the source gives them in different places.

Tests used:
[1] = test system: carrageenan-induced rat paw edema; test: Carrageenan-induced paw edema in rats; type: in vivo; details: 10 mg/kg oral; for Paw size: individual rats; for Paw size, Average: average over all measurements 0-5 hours
Description: Carrageenan was injected subcutaneously into a rodent's paw to generate inflammation due to plasma extravasation, tissue proliferation, plasma protein release, and neutrophilic extravasation, all of which are caused by arachidonic acid digestion. The major phase of inflammation occurs after the carrageenan infusion, and lasts about two hours. This primary stage is associated with the emergence of histamine and serotonin. The next stage frequently is remodeling and edema, which lasts about five hours and begins at about the third hour after administration of carrageenan. The appearance of prostaglandins, proteases, and lysosomes is associated with this second stage of inflammation.
Adult male albino rats weighing 120 g-150 g were divided into five groups of seven rats, allowed free access to food and water at 25° C. and 12 h light/dark cycle. Inflammation was generated in the rats by subplantar injection of 0.2 ml of 1% carrageenan solution in 0.9 percent saline (Sigma-Aldrich, St. Louis, Mo., USA), and injected into the right hind paw. A vernier caliper (SMIEC, Shanghai, China) was used to measure the thickness of the rat paws before and after carrageenan injection to provide a measure of the inflammation caused by carrageenan.
Paw edema was measured at 0 minutes, 30 minutes, and 1, 2, 3, 4, and 5 hours following administration of the medication. Inhibition of edema was indicated by the reduction of increased thickness when comparing the treated and control groups.

HEK293 cells = details: 40 μM; for Proliferation of HEK293 (difference in absorbance between 450 and 620 nm), individual wells: WST-1
Description: HEK293 cells were treated with the compound solution at 40 μM or the vehicle dimethyl sulfoxide (DMSO) for 24 hours, with the addition of 5% fetal ox-like serum for recognition of cell feasibility reliant on mitochondrial movement.
Three wells were tested for each treatment. WST-1 reagent was added to each well, and the cells were incubated at 37° C.

rat paw = test: Histopathologic examination of carrageenan-treated rat paw (H&E, Masson's trichrome); type: in vivo; details: for Rat paw collagen deposition, Masson's Trichrome stain / Rat paw histopathology, H&E, 10× magnification: 10×; for Rat paw histopathology, H&E: inflammatory reaction and edema: H&E stain
Description: The rat paws were removed and promptly cleaned in saline solution. The specimens were then fixed in 10% natural formalin for two days, and then rinsed with running water overnight. The cleaned samples were then dehydrated in increasing concentrations of ethyl alcohol, beginning with 70% and ending with absolute alcohol.
The samples were cleared by soaking them in xylol for 2 hours. The cleared samples were placed in a covered jar containing 50% paraffin in xylol for 3 hours at 37° C. The samples were then immersed in melting paraffin and maintained at 48° C. for 2 hours before being blocked in hard paraffin and cut into 5-micron sections. Hematoxylin and eosin (H&E) and Masson's trichrome were used to stain the sections. To prepare for histopathological investigation, sections of control rat paws, as well as rat paws treated with carrageenan alone or along with Compound 1, Compound 2, or indomethacin, were mounted with Canada balsam and coated with a coverslip.
The density of the blue-green collagen is consistent with the relative amount of deposited total collagen fiber, which represents collagen synthesis, degradation, and remodeling—some of which is associated with inflammation.

rat stomach [2] = test: Ulcerogenic effect on rat stomach (histopathology); type: in vivo; details: for Rat stomach collagen deposition, Masson's Trichrome stain, 10× / Rat stomach collagen deposition, Masson's Trichrome stain / Rat stomach collagen deposition, Masson's Trichrome stain, 40×: 20 mg/kg oral single dose, 24 hours; for Rat stomach collagen deposition, Masson's Trichrome stain: 10× and 40×; for Effect on gastric mucosa, in words: rat stomach
Description: Rats were starved for 24 hours at a normal room temperature of 25° C. with a 12-hour light/dark cycle. The reference drug for comparison was indomethacin. All compounds were administered orally at a single dose of 20 mg/kg. The rats were sacrificed after 24 hours, and their stomachs were retrieved and cleansed with normal saline. Each group's stomachs were examined using binocular magnification to detect the presence of a gastric lesion on the mucosa. The stomachs were then preserved in 10% w/v formalin for histological analysis. Exemplary photomicrographs are included in FIGS. 5A to 5H, and FIGS. 6A to 6H, as discussed further below.
This was accomplished by histopathologic examination of rat stomachs stained by Masson's Trichrome stain. See the photomicrographs of exemplary sections depicted in FIGS. 6A to 6H. Again, after application of Masson's Trichrome, the collagen fibrils are stained blue-green. The double-headed arrow represents collagen fibrils thickness in the submucosa.

rat stomach [3] = test: Ulcerogenic effect on rat stomach (histopathology); type: in vivo; details: 20 mg/kg oral single dose, 24 hours; for Rat stomach gastric layers, H&E: 10×; for Rat stomach inflammatory reaction, H&E: 40×

Row | Compound | Effect on rat paw edema, in words [1] | Paw size ([1]; 30 min) | Paw size ([1]; 1 hour) | Paw size ([1]; 2 hours) | Paw size ([1]; 3 hours) | Paw size ([1]; 4 hours) | Paw size ([1]; 5 hours) | Paw size, Average [1] | Paw size ([1]; zero time) | Rat paw collagen deposition, Masson's Trichrome stain (rat paw) | Rat paw histopathology, H&E, 10× magnification (rat paw) | Rat paw histopathology, H&E, 40× magnification (rat paw) | Rat paw histopathology, H&E: inflammatory reaction and edema (rat paw) | Rat stomach collagen deposition, Masson's Trichrome stain, 10× (rat stomach [2]) | Rat stomach collagen deposition, Masson's Trichrome stain (rat stomach [2]) | Rat stomach collagen deposition, Masson's Trichrome stain, 40× (rat stomach [2]) | Effect on gastric mucosa, in words (rat stomach [2]) | Proliferation of HEK293 (difference in absorbance between 450 and 620 nm), individual wells (HEK293 cells; 24 hours) | Rat stomach gastric layers, H&E (rat stomach [3]) | Rat stomach inflammatory reaction, H&E (rat stomach [3]) | further results
1 | Cc1ccc(-c2cc(C(F)(F)F)nn2-c2ccc(S(N)(=O)=O)cc2)cc1 [Celecoxib, reference compound] | dramatically reduced |  |  |  |  |  |  |  |  |  |  |  |  |  |  |  |  |  |  |  | Cytotoxicity: morphological changes or damages in HEK293 cells (HEK293 cells; human, 24 h): caused changes and damages in HEK293 cells
2 | Cc1cccc2[nH]c(C3CCCN(C(=O)c4ccccc4NCC(=O)O)C3)nc12 (stereo not shown) [Compound 1, [(2-{[3-(4-methyl-1H-benzimidazol-2-yl)piperidin-1-yl]carbonyl}phenyl)amino] acetic acid] | demonstrated to treat paw swelling; also recorded: significant decreases in rat paw size; also recorded: dramatically reduced | 0.7 cm (3×) and 0.65 cm (4×) | 0.55 cm and 0.5 cm (4×) and 0.45 cm (2×) | 0.5 cm (2×) and 0.45 cm (3×) and 0.4 cm (2×) | 0.4 cm (3×) and 0.35 cm and 0.45 cm (3×) | 0.45 cm (2×) and 0.4 cm (4×) and 0.5 cm | 0.55 cm and 0.6 cm (4×) and 0.65 cm (2×) | 0.542 cm | 0.75 cm (4×) and 0.7 cm (3×) | slight collagen deposition | significant decrease in dermal thickness, inflammatory reaction in the deep dermis (black star), and moderate improvement in edema | slight inflammatory reaction (black star) and slight edema | reduce inflammatory cell infiltration and alleviate edema with lesser collagen deposition; also recorded: marked improvement in the degree of edema and the inflammatory cell infiltration | normal collagen deposition | normal collagen deposition | normal collagen deposition | no effect on gastric mucosa integrity or mucosa collagen content; also recorded: devoid of side effects on gastric mucosa | 1.0653 and 1.0573 and 1.0547 | normal gastric layers | no sign of inflammatory reaction | Proliferation of HEK293 (difference in absorbance between 450 and 620 nm), Average (HEK293 cells; 24 hours, WST-1, three wells): 1.06; Rat stomach inflammatory reaction, H&E (rat stomach [3]; listed as compound 1): absence of any inflammatory reaction
3 | CCOC(=O)c1cn(-c2cc(C#N)ccc2O)cc(Oc2ccccc2)c1=O [Compound 2, ethyl-1-(5-cyano-2-hydroxyphenyl)-4-oxo-5-phenoxy-1,4-dihydropyridine-3-carboxylate] | demonstrated to treat paw swelling; also recorded: significant decreases in rat paw size; also recorded: dramatically reduced | 0.7 cm (3×) and 0.65 cm (2×) and 0.55 cm (2×) | 0.55 cm and 0.5 cm (3×) and 0.45 cm (3×) | 0.45 cm (2×) and 0.4 cm (5×) | 0.35 cm and 0.4 cm (5×) and 0.45 cm | 0.4 cm (5×) and 0.45 cm (2×) | 0.55 cm and 0.6 cm (5×) and 0.5 cm | 0.524 cm | 0.75 cm (5×) and 0.7 cm (2×) | slight collagen deposition; also recorded: lowest | substantial decrease in both inflammatory reaction (black star) and edema | slight inflammatory reaction (black star) and slight edema | reduce inflammatory cell infiltration and alleviate edema with lesser collagen deposition; also recorded: substantial decrease in both inflammatory reaction (black star) and a pronounced decline in edema | slight collagen deposition | slight collagen deposition | slight collagen deposition | no effect on gastric mucosa integrity or mucosa collagen content; also recorded: devoid of side effects on gastric mucosa | 1.0667 and 1.0476 and 1.0648 | normal gastric layers | absence of any inflammatory reaction; also recorded: no sign of inflammatory reaction | Proliferation of HEK293 (difference in absorbance between 450 and 620 nm), Average (HEK293 cells; 24 hours, WST-1, three wells): 1.06
4 | O=C(O)Cc1ccccc1Nc1c(Cl)cccc1Cl [Diclofenac, reference compound] | significantly reduced rat paw edema | 0.7 cm and 0.65 cm (4×) and 0.6 cm (2×) | 0.55 cm and 0.5 cm (3×) and 0.4 cm (2×) and 0.45 cm | 0.45 cm (4×) and 0.4 cm (3×) | 0.4 cm (4×) and 0.35 cm (2×) and 0.45 cm | 0.35 cm (2×) and 0.4 cm (3×) and 0.45 cm (2×) | 0.55 cm (3×) and 0.6 cm (4×) | 0.518 cm | 0.7 cm (5×) and 0.75 cm (2×) |  |  |  |  |  |  |  |  |  |  |  | Proliferation of HEK293 (difference in absorbance between 450 and 620 nm), Average (HEK293 cells; human, 24 h): 1
5 | COc1ccc2c(c1)c(CC(=O)O)c(C)n2C(=O)c1ccc(Cl)cc1 [Indomethacin, reference compound] | significantly reduced rat paw edema; also recorded: dramatically reduced | 0.7 cm and 0.6 cm (4×) and 0.65 cm (2×) | 0.5 cm (2×) and 0.4 cm (4×) and 0.45 cm | 0.45 cm and 0.4 cm (3×) and 0.35 cm (3×) | 0.4 cm (5×) and 0.35 cm (2×) | 0.35 cm (4×) and 0.4 cm (3×) | 0.5 cm and 0.55 cm (4×) and 0.45 cm (2×) | 0.494 cm | 0.7 cm (2×) and 0.75 cm (5×) | slight collagen deposition | significant decrease in inflammatory reaction (black star) and a moderate decrease in edema | slight inflammatory reaction (black star) and slight edema | significant decrease in the degree of inflammatory reaction (black star), and a moderate decrease in edema | significant collagen deposition | significant collagen deposition | collagen deposition |  |  | slight degeneration of gastric layers | absence of any inflammatory reaction; also recorded: no sign of inflammatory reaction | 
